According to ChEMBL document CHEMBL1201862, “PubChem BioAssay data set” (2004):
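Each compound was tested at five concentrations against cells in 96-well plates for 48 hours. GI50 marks 50% less growth.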 Calls of active or inactive are those of the source. Rule as the data show it: active = GI50 up to about 1.1 µM and inactive = higher.

Assays:
Experiment in all cases: growth of human tumour cells (NCI), 48 h
[1] = tested on: 786-0
[2] = tested on: A498
[3] = tested on: A549
[4] = tested on: ACHN
[5] = tested on: BT-549
[6] = tested on: CAKI-1
[7] = tested on: CCRF-CEM
[8] = tested on: COLO 205
[9] = tested on: DU-145
[10] = tested on: EKVX
[11] = tested on: HCC 2998
[12] = tested on: HCT-116
[13] = tested on: HCT-15
[14] = tested on: HL-60
[15] = tested on: HOP-62
[16] = tested on: HOP-92
[17] = tested on: HT-29
[18] = tested on: Hs-578T
[19] = tested on: IGROV-1
[20] = tested on: K562
[21] = tested on: KM12
[22] = tested on: LOX IMVI
[23] = tested on: M14
[24] = tested on: MCF7
[25] = tested on: MDA-MB-231
[26] = tested on: MDA-MB-435
[27] = tested on: MDA-N
[28] = tested on: MOLT-4
[29] = tested on: Malme-3M
[30] = tested on: NCI-H226
[31] = tested on: NCI-H23
[32] = tested on: NCI-H460
[33] = tested on: NCI-H522
[34] = tested on: NCI/ADR-RES
[35] = tested on: OVCAR-3
[36] = tested on: OVCAR-4
[37] = tested on: OVCAR-5
[38] = tested on: OVCAR-8
[39] = tested on: PC-3
[40] = tested on: RPMI-8226
[41] = tested on: RXF 393
[42] = tested on: SF-268
[43] = tested on: SF-295
[44] = tested on: SF-539
[45] = tested on: SK-MEL-28
[46] = tested on: SK-MEL-2
[47] = tested on: SK-MEL-5
[48] = tested on: SK-OV-3
[49] = tested on: SN12C
[50] = tested on: SNB-19
[51] = tested on: SNB-75
[52] = tested on: SR
[53] = tested on: SW-620
[54] = tested on: T47D
[55] = tested on: TK-10
[56] = tested on: U-251
[57] = tested on: UACC-257
[58] = tested on: UACC-62
[59] = tested on: UO-31

Measured: GI50

COc1ccc(CC2c3cc(Oc4cc(CC5c6cc(OC)c(OC)cc6CCN5C)ccc4O)c(OC)cc3CCN2C)cc1 (stereo not drawn)
active: [7] 0.519 µM
inactive: [1] 3.02 µM | [2] 7.96 µM | [3] 6.73 µM | [4] 7.01 µM | [5] 6.64 µM | [6] 1.48 µM | [8] 7.06 µM | [9] 1.3 µM | [10] 8.65 µM | [11] 1.14 µM | [12] 2.22 µM | [14] 7.78 µM | [15] 7.93 µM | [16] 7.41 µM | [17] 2.06 µM | [18] 9.62 µM | [19] 8.59 µM | [20] 1.36 µM | [21] 1.77 µM | [22] 2.55 µM | [23] 5.64 µM | [24] 5.81 µM | [25] 7.91 µM | [26] 4.14 µM | [27] 7.1 µM | [28] 5.52 µM | [29] 10.1 µM | [30] 10.2 µM | [31] 8.18 µM | [32] 6.98 µM | [33] 6.81 µM | [34] 7.48 µM | [35] 8.05 µM | [36] 2.42 µM | [37] 9.44 µM | [38] 5.96 µM | [39] 5.47 µM | [40] 2.44 µM | [41] 5.92 µM | [42] 9.14 µM | [43] 8.2 µM | [44] 8.63 µM | [45] 7.8 µM | [46] 8.65 µM | [47] 7.6 µM | [48] 9.29 µM | [49] 8 µM | [50] 6.1 µM | [51] 8.45 µM | [52] 1.43 µM | [53] 1.66 µM | [54] 6.43 µM | [55] 3.87 µM | [56] 5.74 µM | [57] 8.04 µM | [58] 8.65 µM | [59] 5.25 µM
2.17 µM: [13]

CN(CCCCN1CCCC1)CCCN(C)C(=O)Cc1ccc(Cl)c(Cl)c1
27.3 µM: [13]
inactive: [1] 12.9 µM | [2] 15.8 µM | [3] 18.7 µM | [4] 35.7 µM | [5] 16 µM | [6] 21.1 µM | [7] 4.74 µM | [8] 11.9 µM | [9] 37.1 µM | [10] 19.5 µM | [11] 3.62 µM | [12] 13.2 µM | [14] 15.3 µM | [15] 13.9 µM | [16] 4.57 µM | [17] 4.45 µM | [18] 20.6 µM | [19] 20.2 µM | [20] 3.05 µM | [21] 12.5 µM | [22] 11.9 µM | [23] 17 µM | [24] 17.4 µM | [25] 10.2 µM | [26] 2.56 µM | [27] 4.27 µM | [28] 8.91 µM | [29] 18.8 µM | [30] 26.9 µM | [31] 18 µM | [32] 16.3 µM | [33] 13.1 µM | [34] > 100 µM | [35] 19.1 µM | [36] 20 µM | [37] 29.6 µM | [38] 24.4 µM | [39] 19.1 µM | [40] 5.85 µM | [41] 12.7 µM | [42] 26.7 µM | [43] 19.3 µM | [44] 7.38 µM | [45] 1.79 µM | [46] 7.94 µM | [47] 9.98 µM | [48] 33.3 µM | [49] 17.5 µM | [50] 23.7 µM | [51] 20.7 µM | [52] 3.3 µM | [53] 17.7 µM | [54] 21 µM | [55] 17.7 µM | [56] 16 µM | [57] 3.29 µM | [58] 4.33 µM | [59] 1.95 µM
